Data published in US20110212100A1, “METHODS FOR MODULATING DEVELOPMENT AND EXPANSION OF IL-17 EXPRESSING CELLS” (priority 2007, published 2011).

Experiments:
Format in all cases: cell-based, mouse
[1] = test system: Th17 differentiation of CD4+ CD25− T cells; experiment: Th17 differentiation (IL-17+ IFNγ− cells) of T cells activated with TGFβ plus IL-6
Experimental: Low doses of halofuginone (HF) were tested to determine the ability of HF to enhance Treg differentiation, while suppressing Th17 differentiation. Nave. CD4+ T cells (CD4+ CD25−) were isolated from the spleen and peripheral lymph nodes of C57B/6 mice. T cells were then activated using anti-CD3 (0.3 μg/ml) and anti-CD28 (0.5 μg/ml) antibodies either in media alone (row 1, 4), TGFβ alone (3 ng/ml—row 2, 5) or TGFβ (3 ng/ml) plus IL-6 (30 ng/ml) (row 3, 6). […] T cells were cultured for 3 days and CD25 and Foxp3 expression (Treg marker genes) was determine by FACS staining and flow cytometric analyses. Simultaneously, T cells were harvested and re-stimulated for 4 hours using phorbol myristic acetate (PMA; 10 nM), Ionomycin (1 μM) and cytokine secretion was prevented using brefeldin A (20 μg/ml). Following stimulation, the production of IL-17 and IFNγ were determined by intracellular staining and analyzed via flow cytometry.
(§1) The dose-response of HF on CD4+ T cell proliferation, activation (i.e. CD25 upregulation) and differentiation to Th1, Th2 and Th17 lineages were evaluated. Purified murine naïve CD4+ CD25− T cells were activated using anti-CD3 (0.3 μg/ml) and anti-CD28 (0.5 μg/ml) antibodies and varying amounts of HF was added to each T cell culture condition (1.25 nM-40 nM). CD4+ T cell proliferation was monitored by CFSE dilution on day 3-post activation and CD25 expression was evaluated by FACS staining 2 days after activation. For T cell differentiation experiments, naïve T cells were activated as above in the presence of Th1 (IL-12 (20 ng/ml) plus anti-IL-4 (10 μg/ml)), Th2 (IL-4 (50 ng/ml) plus anti-IFNγ (0.5 mg/ml)) or Th17 (TGFβ (3 ng/ml) plus IL-6 (30 ng/ml)) polarizing conditions plus titrating amounts of HF (1.25 nM-40 nM) or MAZ1310 (40 nM). The percentage of Th17 cells, (IL-17^+ IFNγ^−) was evaluated on day 3 following activation, whereas the abundance of Th1 cells (IFNγ^+ IL-4) and Th2 cells (IL-4^+ IFNγ^−) was determined 5 days following activation. All cytokine expression was determined by intracellular staining following PMA+Ionomycin+Brefeldin A re-stimulation and all data was normalized to control (MAZ1310)-treated cells. […] Biol., vol. 80:1-8 (2006).
(§2) Cytokines, antibodies and T cell culture: Purified CD4^+ CD25^− T cells were activated in vitro as previously described (I. M. Djuretic et al., Nat Immunol 8, 145 (2007)) using 0.3 μg/ml hamster anti-mouse CD3 (clone 145-2C11) (ATCC—Manassas, Va.) and 0.5 μg/ml hamster anti-mouse CD28 (BD Pharmingen, San Jose, Calif.). Activated cell cultures were differentiated using the following combinations of cytokines and antibodies: iTreg=recombinant human TGFβ1 (3 ng/ml; R&D systems, Minneapolis, Minn.), Th17βTGFβ1 (3 ng/ml) plus recombinant mouse IL-6 (30 ng/ml, R&D systems). Th1 and Th2 differentiation was performed as previously described. (I. M. Djuretic et al., Nat Immunol 8, 145 (2007)). Human IL-2 supernatant (National Cancer Institute) was used in culture at 0.01 U/ml and was added at 48 hours-post activation when T cells were split into tissue culture wells lacking CD3 and CD28 antibodies, with the exception of Th17 cultures that were maintained in the absence of IL-2. All reagents were added at the time of T cell activation and again at 48-hours post activation unless indicated otherwise. For some experiments, purified CD4^+ CD25^− T cells, CD8^+ T cells or B cells were labeled with 1 μM CFSE (Invitrogen) prior to activation in accordance with manufacturers instructions.
Detection of cytokine production: Cytokines secreted into media supernatant were measured using the mouse Th1/Th2 cytometric bead array (CBA, BD Pharmingen) in accordance with manufacturers instructions.

CD4+ CD25− T cells = experiment: CD4+ T cell proliferation, CD25 upregulation, cytokine production and Th1/Th2/iTreg differentiation; conditions: titrating concentrations of tunicamycin
Experimental: as §1, §2
Detection of cytokine production: Cytokines secreted into media supernatant were measured using the mouse Th1/Th2 cytometric bead array (CBA, BD Pharmingen) in accordance with manufacturers instructions. […]

[2] = test system: TGFβ-induced Smad phosphorylation; experiment: TGFβ signaling in T and B cells (Smad phosphorylation, lymphocyte responses to TGFβ); conditions: HF 2.5-40 nM or 10 nM; SB-431542 10 μM
Experimental: T cells were then activated in the presence or absence of 3 ng/ml. TGFβ. Whole cell extracts were prepared after 1 hour of stimulation and western blot analyses were performed using the indicated antibodies.
Western blotting: Whole cell lysates were generated from T cells activated for the indicated times. For STAT3 and Smad2/3 western blots cells were harvested, washed in PBS and lysed in 50 mM Tris, pH 7.4, 0.1% SDS, 1% Triton-X100, 140 mM NaCl, 1 mM EDTA, 1 mM EGTA supplemented with protease inhibitors tablets (Roche-Germany), 1 mM NaF and 1 mM Na3VO4. For eIF2α and ATF4 western blots, cells were harvested as above and lysed in 50 mM Tris, pH 7.4, 2% SDS, 20% glycerol and 2 mM EDTA supplemented with protease and phosphatase inhibitors as above. All lysates were cleared via centrifugation and 15-30 μg of protein was resolved by SDS-PAGE. Protein was transferred to nitrocellulose membranes, blocked and blotted using specific antibodies. Antibodies used for western blot analysis were anti-phospho-Smad2, anti-STAT3 (pY705), anti-STAT3, anti-eIF2α^pS51, anti-eIF2α, anti-GCN2^pT898, anti-GCN2 (all from cell signaling technology, Danvers, Mass.). Anti-ATF4/CREB2 and anti-β-actin were purchased from Santa Cruz biotechnology (Santa Cruz, Calif.). […]

CC(C)(C)OC(=O)N1CCC[C@H](O)[C@H]1CC(=O)Cn1cnc2cc(Br)c(Cl)cc2c1=O [MAZ1310]
activity of the HF derivative used as negative control, in words ([1]; used at equal concentrations as HF): inactive

N[C@H](CO)Cc1c[nH]c2ccccc12 [L-tryptophanol]
effect of L-tryptophanol on IL-17 production, in words ([1]; 0.2 mM in complete medium, TGFβ plus IL-6): impaired IL-17 production

tunicamycin
effect of tunicamycin on IL-17 expression in T cells, in words ([1]; titrating concentrations of tunicamycin): little influence on IL-17 expression
effect of tunicamycin on Th1 and Th2 differentiation, in words (CD4+ CD25− T cells): preferentially impaired Th1 and Th2 differentiation

NC(=O)c1ccc(-c2nc(-c3ccc4c(c3)OCO4)c(-c3ccccn3)[nH]2)cc1 [SB-431542]
effect on TGFβ-induced Smad phosphorylation and other lymphocyte responses to TGFβ, in words [2]: abrogated all responses to TGFβ
